Reference: PMC7577350 (ACS chemical biology, 2013)
Read-outs that look alike come from different tables or passages of the source. Numbered stars: 1 amine (or outer) side, 2 acyl side, 3 side chain; on linkers, the order of the positions; unused ones are H or OH. Bridge positions count the residues as written; N and C are the ends. Square brackets hold non-standard residues; d marks the D form. Peptide text beside a SMILES is read from it. Nle(6-ylidene) = O=C([C@H](CCCC=[*:3])N[*:1])[*:2]; Gly(pent-4-enyl) = C=CCCC[C@H](N)C(=O)O

Experiments:
HIV-1 (NL4-3 strain) [1] = type: cell-based; details: read-out: EC50 (μM) p24 assay, MT-4 cells
HIV-1 (NL4-3 strain) [2] = assay: MTT anti-HIV assay; type: cell-based; details: read-out: EC50 (μM) MTT assay; MT-4 cells, HIV-1 NL4-3, Table 3
mock-infected MT-4 cells = assay: MTT cytotoxicity assay; type: cell-based
HIV-1 IN [3] = molecular target: T1, HIV-1 IN (Human immunodeficiency virus type 1 group M subtype B, UniProt P04585); assay: Integrase assay, 3′-end processing reaction; type: biochemical
HIV-1 IN [4] = molecular target: T1, HIV-1 IN; assay: Integrase assay, strand transfer reaction; type: biochemical
MTT cytotoxicity assay = type: cell-based
HIV-1 NL4-3 = assay: MT-4 Luc assay; type: cell-based; details: MT-4 Luc cells; for concentrations at which significant anti-HIV activity was shown: luciferase signal
[5] = CC50 (μM) MTT assay, mock infected MT-4 cells, Table 3
[6] = both 3′-end processing and strand transfer reactions
[7] = CC50 (μM) MTT assay, mock infected MT-4 cells, Table 4

`Cc1cn([C@H]2C[C@H](N=[N+]=[N-])[C@@H](CO)O2)c(=O)[nH]c1=O` [AZT, reference compound] showed an EC50 (HIV-1 (NL4-3 strain) [1]; HIV-1 NL4-3, Table 3) of 0.02 µM, an EC50 (HIV-1 (NL4-3 strain) [1]; HIV-1 NL4-3, Table 4) of 0.29 µM and an EC50 (HIV-1 (NL4-3 strain) [2]) of 0.07 µM. The CC50 (mock-infected MT-4 cells) was over 100 µM.

For `CC[C@H](C)[C@H](NC(=O)[C@H](C)NC(=O)[C@H](CCC(=O)O)NC(C)=O)C(=O)N[C@H](C(=O)N[C@@H](CCCNC(=N)N)C(=O)N[C@H](C(=O)N[C@@H](CC(C)C)C(=O)N[C@@H](CCC(N)=O)C(=O)N[C@@H](CCC(N)=O)C(=O)N[C@@H](CC(C)C)C(=O)N[C@@H](CC(C)C)C(=O)N[C@@H](Cc1ccccc1)C(=O)N[C@H](C(=O)N[C@@H](Cc1c[nH]cn1)C(=O)N[C@@H](Cc1ccccc1)C(=O)N[C@@H](CCCNC(=N)N)C(=O)N[C@H](C(=O)NCC(N)=O)[C@@H](C)CC)[C@@H](C)CC)[C@@H](C)CC)[C@@H](C)CC` [compound 1], the IC50 (HIV-1 IN [3]; IC50 3′-end processing, Table 2) was 2.6 ± 0.2 µM, the IC50 (HIV-1 IN [3]; IC50 (μM) 3′-end processing, Table 3 batch) was 1.62 ± 0.26 µM and the IC50 (HIV-1 IN [3]; IC50 (μM) 3′-end processing, Table 4 batch) was 2 ± 0.2 µM. It also gave an IC50 (HIV-1 IN [4]; IC50 (μM) strand transfer, Table 3 batch) of 1.34 ± 0.2 µM, an IC50 (HIV-1 IN [4]; IC50 (μM) strand transfer, Table 4 batch) of 2.2 ± 0.2 µM and an IC50 (HIV-1 IN [4]; IC50 strand transfer, Table 2) of 1.1 ± 0.08 µM. The EC50 (HIV-1 (NL4-3 strain) [1]; HIV-1 NL4-3, Table 3) was over 10 µM, the EC50 (HIV-1 (NL4-3 strain) [1]; HIV-1 NL4-3, Table 4) was over 20 µM and the EC50 (HIV-1 (NL4-3 strain) [2]) was over 10 µM. The CC50 (MTT cytotoxicity assay; [5]) was over 10 µM and the “anti-HIV activity at concentrations below 10 μM” value (HIV-1 NL4-3; below 10 μM) was “no significant anti-HIV activity”.

In the case of `CC[C@H](C)[C@H](NC(=O)[C@H](C)NC(=O)[C@H](CCC(=O)O)NC(C)=O)C(=O)N[C@H](C(=O)N[C@@H](CCCNC(=N)N)C(=O)N[C@H](C(=O)N[C@@H](CC(C)C)C(=O)N[C@@H](CCC(N)=O)C(=O)N[C@@H](CCC(N)=O)C(=O)N[C@@H](CC(C)C)C(=O)N[C@@H](CC(C)C)C(=O)N[C@@H](Cc1ccccc1)C(=O)N[C@H](C(=O)N[C@@H](Cc1c[nH]cn1)C(=O)N[C@@H](Cc1ccccc1)C(=O)N[C@@H](CCCNC(=N)N)C(=O)N[C@H](C(=O)NCC(=O)N[C@@H](CCCNC(=N)N)C(=O)N[C@@H](CCCNC(=N)N)C(=O)N[C@@H](CCCNC(=N)N)C(=O)N[C@@H](CCCNC(=N)N)C(=O)N[C@@H](CCCNC(=N)N)C(=O)N[C@@H](CCCNC(=N)N)C(=O)N[C@@H](CCCNC(=N)N)C(=O)N[C@@H](CCCNC(=N)N)C(N)=O)[C@@H](C)CC)[C@@H](C)CC)[C@@H](C)CC)[C@@H](C)CC` [compound 2], the “inhibitory levels × higher than those of compound 1” value (HIV-1 IN [3]; [6]) is reported as “approximately 30 ×”, the CC50 (MTT cytotoxicity assay) is reported as 5.91 µM and the “concentrations at which significant anti-HIV activity was shown” value (HIV-1 NL4-3) is reported as “above 2.5 μM”.

For `CC[C@H](C)[C@H](NC(=O)[C@H](C)NC(=O)[C@H](CCC(=O)O)NC(C)=O)C(=O)N[C@H]1CCCC=CCCC[C@@H](C(=O)N[C@@H](CCC(N)=O)C(=O)N[C@@H](CC(C)C)C(=O)N[C@@H](CC(C)C)C(=O)N[C@@H](Cc2ccccc2)C(=O)N[C@H](C(=O)N[C@@H](Cc2c[nH]cn2)C(=O)N[C@@H](Cc2ccccc2)C(=O)N[C@@H](CCCNC(=N)N)C(=O)N[C@H](C(=O)NCC(=O)N[C@@H](CCCNC(=N)N)C(=O)N[C@@H](CCCNC(=N)N)C(=O)N[C@@H](CCCNC(=N)N)C(=O)N[C@@H](CCCNC(=N)N)C(=O)N[C@@H](CCCNC(=N)N)C(=O)N[C@@H](CCCNC(=N)N)C(=O)N[C@@H](CCCNC(=N)N)C(=O)N[C@@H](CCCNC(=N)N)C(N)=O)[C@@H](C)CC)[C@@H](C)CC)NC(=O)[C@H](CC(C)C)NC(=O)[C@H]([C@@H](C)CC)NC(=O)[C@H](CCCNC(=N)N)NC1=O` [compound 17] (Ac-EAI[Nle(6-ylidene)]RIL[Nle(6-ylidene)]QLLFIHFRIGRRRRRRRR-NH2; staple 4-8), the CC50 (MTT cytotoxicity assay; [5]) was 7.04 µM, the CC50 (MTT cytotoxicity assay; [7]) was 6.9 µM and the “concentrations at which significant anti-HIV activity was shown” value (HIV-1 NL4-3) was “above 1.25 μM”.

In the case of `CC[C@H](C)[C@H](NC(=O)[C@H](C)NC(=O)[C@H](CCC(=O)O)NC(C)=O)C(=O)N[C@H]1CCCC=CCCC[C@@H](C(=O)N[C@@H](CCC(N)=O)C(=O)N[C@@H](CC(C)C)C(=O)N[C@@H](CC(C)C)C(=O)N[C@@H](Cc2ccccc2)C(=O)N[C@H](C(=O)N[C@@H](Cc2c[nH]cn2)C(=O)N[C@@H](Cc2ccccc2)C(=O)N[C@@H](CCCNC(=N)N)C(=O)N[C@H](C(=O)NCC(=O)N[C@@H](CCCNC(=N)N)C(=O)N[C@@H](CCC(=O)O)C(=O)N[C@@H](CCCNC(=N)N)C(=O)N[C@@H](CCC(=O)O)C(=O)N[C@@H](CCCNC(=N)N)C(=O)N[C@@H](CCC(=O)O)C(=O)N[C@@H](CCCNC(=N)N)C(=O)N[C@@H](CCC(=O)O)C(N)=O)[C@@H](C)CC)[C@@H](C)CC)NC(=O)[C@H](CC(C)C)NC(=O)[C@H]([C@@H](C)CC)NC(=O)[C@H](CCCNC(=N)N)NC1=O` [compound 18] (Ac-EAI[Nle(6-ylidene)]RIL[Nle(6-ylidene)]QLLFIHFRIGRERERERE-NH2; staple 4-8), the CC50 (MTT cytotoxicity assay; [5]) is reported as over 10 µM and the “concentrations at which significant anti-HIV activity was shown” value (HIV-1 NL4-3) is reported as “above 5 μM”.

With `C=CCCC[C@H](NC(=O)[C@H](CC(C)C)NC(=O)[C@@H](NC(=O)[C@H](CCCNC(=N)N)NC(=O)[C@H](CCCC=C)NC(=O)[C@@H](NC(=O)[C@H](C)NC(=O)[C@H](CCC(=O)O)NC(C)=O)[C@@H](C)CC)[C@@H](C)CC)C(=O)N[C@@H](CCC(N)=O)C(=O)N[C@@H](CC(C)C)C(=O)N[C@@H](CC(C)C)C(=O)N[C@@H](Cc1ccccc1)C(=O)N[C@H](C(=O)N[C@@H](Cc1c[nH]cn1)C(=O)N[C@@H](Cc1ccccc1)C(=O)N[C@@H](CCCNC(=N)N)C(=O)N[C@H](C(=O)NCC(=O)N[C@@H](CCCNC(=N)N)C(=O)N[C@@H](CCC(=O)O)C(=O)N[C@@H](CCCNC(=N)N)C(=O)N[C@@H](CCC(=O)O)C(=O)N[C@@H](CCCNC(=N)N)C(=O)N[C@@H](CCC(=O)O)C(=O)N[C@@H](CCCNC(=N)N)C(=O)N[C@@H](CCC(=O)O)C(N)=O)[C@@H](C)CC)[C@@H](C)CC` [compound 19] (Ac-EAI[Gly(pent-4-enyl)]RIL[Gly(pent-4-enyl)]QLLFIHFRIGRERERERE-NH2) the CC50 (MTT cytotoxicity assay; [5]) was over 10 µM and the “concentrations at which significant anti-HIV activity was shown” value (HIV-1 NL4-3) was 10 µM.

With `CC[C@H](C)[C@H](NC(=O)[C@H](C)NC(=O)[C@H](CCC(=O)O)NC(C)=O)C(=O)N[C@H]1CCCC=CCCC[C@@H](C(=O)N[C@@H](CCC(N)=O)C(=O)N[C@@H](CC(C)C)C(=O)N[C@@H](CC(C)C)C(=O)N[C@@H](Cc2ccccc2)C(=O)N[C@H](C(=O)N[C@@H](Cc2c[nH]cn2)C(=O)N[C@@H](Cc2ccccc2)C(=O)N[C@@H](CCCNC(=N)N)C(=O)N[C@H](C(=O)NCC(=O)N[C@@H](CCCNC(=N)N)C(=O)N[C@@H](CCCNC(=N)N)C(=O)N[C@@H](CCCNC(=N)N)C(=O)N[C@@H](CCCNC(=N)N)C(N)=O)[C@@H](C)CC)[C@@H](C)CC)NC(=O)[C@H](CC(C)C)NC(=O)[C@H]([C@@H](C)CC)NC(=O)[C@H](CCCNC(=N)N)NC1=O` [compound 20] (Ac-EAI[Nle(6-ylidene)]RIL[Nle(6-ylidene)]QLLFIHFRIGRRRR-NH2; staple 4-8) the “× higher inhibition than compound 6S” value (HIV-1 IN [3]; [6]) was 3–6 × and the CC50 (MTT cytotoxicity assay; [7]) was 16 µM.

With `CC[C@H](C)[C@H](NC(=O)[C@H](C)NC(=O)[C@H](CCC(=O)O)NC(C)=O)C(=O)N[C@H]1CCCC=CCCC[C@@H](C(=O)N[C@@H](CCC(N)=O)C(=O)N[C@@H](CC(C)C)C(=O)N[C@@H](CC(C)C)C(=O)N[C@@H](Cc2ccccc2)C(=O)N[C@H](C(=O)N[C@@H](Cc2c[nH]cn2)C(=O)N[C@@H](Cc2ccccc2)C(=O)N[C@@H](CCCNC(=N)N)C(=O)N[C@H](C(=O)NCC(=O)N[C@@H](CCCNC(=N)N)C(=O)N[C@@H](CCCNC(=N)N)C(=O)N[C@@H](CCCNC(=N)N)C(=O)N[C@@H](CCCNC(=N)N)C(=O)N[C@@H](CCCNC(=N)N)C(N)=O)[C@@H](C)CC)[C@@H](C)CC)NC(=O)[C@H](CC(C)C)NC(=O)[C@H]([C@@H](C)CC)NC(=O)[C@H](CCCNC(=N)N)NC1=O` [compound 21] (Ac-EAI[Nle(6-ylidene)]RIL[Nle(6-ylidene)]QLLFIHFRIGRRRRR-NH2; staple 4-8) the “× higher inhibition than compound 6S” value (HIV-1 IN [3]; [6]) was 3–6 × and the CC50 (MTT cytotoxicity assay; [7]) was 15 µM.

With `CC[C@H](C)[C@H](NC(=O)[C@H](C)NC(=O)[C@H](CCC(=O)O)NC(C)=O)C(=O)N[C@H]1CCCC=CCCC[C@@H](C(=O)N[C@@H](CCC(N)=O)C(=O)N[C@@H](CC(C)C)C(=O)N[C@@H](CC(C)C)C(=O)N[C@@H](Cc2ccccc2)C(=O)N[C@H](C(=O)N[C@@H](Cc2c[nH]cn2)C(=O)N[C@@H](Cc2ccccc2)C(=O)N[C@@H](CCCNC(=N)N)C(=O)N[C@H](C(=O)NCC(=O)N[C@@H](CCCNC(=N)N)C(=O)N[C@@H](CCCNC(=N)N)C(=O)N[C@@H](CCCNC(=N)N)C(=O)N[C@@H](CCCNC(=N)N)C(=O)N[C@@H](CCCNC(=N)N)C(=O)N[C@@H](CCCNC(=N)N)C(N)=O)[C@@H](C)CC)[C@@H](C)CC)NC(=O)[C@H](CC(C)C)NC(=O)[C@H]([C@@H](C)CC)NC(=O)[C@H](CCCNC(=N)N)NC1=O` [compound 22] (Ac-EAI[Nle(6-ylidene)]RIL[Nle(6-ylidene)]QLLFIHFRIGRRRRRR-NH2; staple 4-8) the “× higher inhibitory levels than compounds 20 and 21” value (HIV-1 IN [3]; both reactions) was 2 × and the CC50 (MTT cytotoxicity assay; [7]) was 13 µM.

Molecule `CC[C@H](C)[C@H](NC(=O)[C@H](C)NC(=O)[C@H](CCC(=O)O)NC(C)=O)C(=O)N[C@H]1CCCC=CCCC[C@@H](C(=O)N[C@@H](CCC(N)=O)C(=O)N[C@@H](CC(C)C)C(=O)N[C@@H](CC(C)C)C(=O)N[C@@H](Cc2ccccc2)C(=O)N[C@H](C(=O)N[C@@H](Cc2c[nH]cn2)C(=O)N[C@@H](Cc2ccccc2)C(=O)N[C@@H](CCCNC(=N)N)C(=O)N[C@H](C(=O)NCC(=O)N[C@@H](CCCNC(=N)N)C(=O)N[C@@H](CCCNC(=N)N)C(=O)N[C@@H](CCCNC(=N)N)C(=O)N[C@@H](CCCNC(=N)N)C(=O)N[C@@H](CCCNC(=N)N)C(=O)N[C@@H](CCCNC(=N)N)C(=O)N[C@@H](CCCNC(=N)N)C(N)=O)[C@@H](C)CC)[C@@H](C)CC)NC(=O)[C@H](CC(C)C)NC(=O)[C@H]([C@@H](C)CC)NC(=O)[C@H](CCCNC(=N)N)NC1=O` [compound 23] (Ac-EAI[Nle(6-ylidene)]RIL[Nle(6-ylidene)]QLLFIHFRIGRRRRRRR-NH2; staple 4-8) has a CC50 (MTT cytotoxicity assay; [7]) of 12 µM.
